In one data set the test system is Shionogi tumor cells. Nature of the data set: MTT assay, taxol chemosensitivity of Shionogi cells. In kind it is cell-based. To be noted: Mus musculus, without ISIS 16009. The procedure:
The in vitro growth inhibitory effects of antisense oligonucleotides and/or taxol on Shionogi tumor cells were asessed by the MTT assay (Miyake et al., 1998). Briefly, 1×10^4 cells were seeded in each well of 96-well microtiter plates and allowed to attach overnight. Cells were then treated once daily with 500 nM oligonucleotide for 2 days. Following oligonucleotide treatment, cells were treated with various concentrations of taxol. After a 48 hour incubation, 20 μl of 5 mg/ml MTT (Sigma) in PBS was added to each well, followed by incubation for 4 hr at 37° C. The formazan crystals were dissolved in DMSO. The optical density was determined with a microculture plate reader at 540 nm. Absorbance values were normalized to the values obtained for the vehicle-treated cells to determine the percent of survival. Each assay was performed in triplicate.
Background: Tetrazolium assays rely on reduction of a dye to a coloured formazan, in cell work by metabolically active cells.

Data set [1] can be described thus: WST-1 viability assay of MO59K cells with taxol. In kind it is cell-based. To be noted: human. As to the method: Cells were seeded at a density of 0.25×10^6 in 6-well plates 24 hours before oligonucleotide treatment. Cultures were then incubated for 4 hours at 37° C. with 200 nM oligonucleotide in the presence of 10 μl Lipofectin as an uptake enhancer, according to the manufacturer's protocol. After incubation, the oligonucleotide-lipofectin mixture was replaced with complete medium and cells were cultured as described above.
Viability assays were performed in 96-well plates (Costar) on cells cultured as described above. Cells were incubated with taxol in 10 μl medium to a final concentration of 2.5 nM. Controls contained 10 μl medium with the corresponding amount of saline. Viability was determined with the […] WST-1 assay (Boehringer mannheim, Indianapolis, Ind.). and measured using a Dynatech MR-7000 ELISA reader acording to the manufacturer's instructions.

One compound from US7148204B2, “Antisense modulation of bcl-x expression” (Isis Pharmaceuticala, Inc., priority 1998, dated 2006) can be followed below.

For orientation: IC50 means the concentration that gives 50% inhibition. Higher therefore signals weaker potency. The term viability denotes a read-out of living cells in per cent, often relative to untreated cells.

In the data set on Shionogi tumor cells, `CC(=O)O[C@H]1C(=O)[C@@]2(C)[C@H]([C@H](OC(=O)c3ccccc3)[C@]3(O)C[C@H](OC(=O)[C@H](O)[C@@H](NC(=O)c4ccccc4)c4ccccc4)C(C)=C1C3(C)C)[C@]1(OC(C)=O)CO[C@@H]1C[C@@H]2O` [taxol] returned an IC50 of 100 nM. Moreover, the viability at 2 days, 2.5 nM in data set [1] (taxol 2.5 nM added at day 2, read-out: cell viability after 4 days) stood at 63%. Also, the cytotoxicity at 24 h, 2.5 nM in data set [1] (taxol 2.5 nM, after 24 hours, read-out: reduction of viability) is 25%. Also, the cytotoxicity at 48 h, 2.5 nM in data set [1] (taxol 2.5 nM, after 48 hours, read-out: reduction of viability) came out at 37%.
